Key:
human EAAT3 = molecular target: T1, human EAAT3 (Homo sapiens, UniProt P43005); assay: FLIPR Membrane Potential (FMP) assay; format: cell-based; conditions: HEK-293 cells stably expressing human EAAT3; antagonist applied 15 min before L-glutamate at EC80; Kb by Cheng-Prusoff from IC50
T1 construct: expressed in transfected cells
T1 sequence (P43005 1-524): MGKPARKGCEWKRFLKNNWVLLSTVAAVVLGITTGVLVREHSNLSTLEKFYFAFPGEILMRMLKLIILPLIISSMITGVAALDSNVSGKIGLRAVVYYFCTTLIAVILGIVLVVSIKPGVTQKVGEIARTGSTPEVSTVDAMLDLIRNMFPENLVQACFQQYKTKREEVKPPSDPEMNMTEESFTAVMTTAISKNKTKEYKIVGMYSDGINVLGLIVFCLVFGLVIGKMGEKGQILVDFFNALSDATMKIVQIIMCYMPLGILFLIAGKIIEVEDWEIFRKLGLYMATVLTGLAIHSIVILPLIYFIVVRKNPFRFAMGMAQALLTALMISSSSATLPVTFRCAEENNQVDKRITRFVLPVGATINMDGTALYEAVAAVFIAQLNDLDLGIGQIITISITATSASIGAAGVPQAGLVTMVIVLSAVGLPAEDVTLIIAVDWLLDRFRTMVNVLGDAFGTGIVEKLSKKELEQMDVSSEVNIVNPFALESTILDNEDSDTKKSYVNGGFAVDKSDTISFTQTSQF
Experimental: The FLIPR Membrane Potential (FMP) Assay
HEK-293 cells stably expressing human EAAT3 were seeded at 55 000 cells/well in growth medium (DMEM glutamate free (Invitrogen 11960-044), 1% Pen Strep (10 ml/l GIBCO BRL No 15140-023), 10% FCS non dialysed heat inactivated, 5 mg/l puromycin) in poly-D-lysine treated 96-well black microtiter plates with clear-bottom. After 24 h, the growth medium was removed and 100 μl/well of Krebs buffer (140 mM NaCl, 4.7 mM KCl, 2.5 mM CaCl2, 1.2 mM MgCl2, 11 mM HEPES, 10 mM D-glucose, pH=7.4) added. The cells were then loaded by adding 100 μl/well FMP assay dye (FLIPR Membrane Potential assay reagent, Molecular Devices). The 96-well plates were then incubated at 37° C. for 1 h. The depolarization of the cells will cause more dye to enter in the cells, where it will bind to intracellular proteins and lipids and cause an increase in the fluorescence signal. Antagonist potency at human EAAT3 was determined by using L-glutamate as agonist at a concentration which gives 80% of the maximum response. The antagonists were applied 15 min before the application of the agonist L-glutamate. The assays were performed at room temperature and measurements done by using a Fluorometric Imaging Plate Reader (FLIPR, Molecular Devices) and filter #2. Responses were measured as peak increase in fluorescence minus basal (i.e. fluorescence without addition of L-glutamate). Kb was determined using the Cheng-Prusoff equation Kb=IC50/[1+(A/EC50)], where IC50 is the concentration of the antagonist producing 50% inhibition, A is the concentration of the agonist against which the IC50 is being determined (at EC80) and EC50 is the concentration of the agonist producing 50% […].

A melting point of 227.5 °C and a Kb (human EAAT3) of 420 nM were found for Cc1ccc(-c2cc(C(=O)NC(C)(C)C)cc(-n3nnnc3C(C)(C)C)c2)cc1F [Example 108, N-tert-Butyl-3-(5-tert-butyltetrazol-1-yl)-5-(3-fluoro-4-methylphenyl)-benzamide] in this work.
A melting point of 83 °C and a Kb (human EAAT3) of 110 nM were found for CCC(C)(C)NC(=O)c1cc(-c2ccc(F)cc2)cc(-n2nnnc2C)c1 [Example 78, 3-(4-Fluorophenyl)-N-(2-methylbutan-2-yl)-5-(5-methyltetrazol-1-yl)-benzamide] in this work.
A melting point of 122 °C and a Kb (human EAAT3) of 270 nM were found for CCc1nnnn1-c1cc(C(=O)NC2(C)CCS(=O)(=O)C2)cc(-c2ccc(C)cc2)c1 (racemic) [Example 34, (RS)-3-(5-Ethyltetrazol-1-yl)-N-(3-methyl-1,1-dioxothiolan-3-yl)-5-(4-methylphenyl)-benzamide] in this work.
A melting point of 224.5 °C and a Kb (human EAAT3) of 260 nM were found for CC(C)(C)c1nnnn1-c1cc(C(=O)NC(C)(C)C(F)(F)F)cc(-c2ccc(F)cc2)c1 [Example 96, 3-(5-tert-Butyltetrazol-1-yl)-5-(4-fluorophenyl)-N-(1,1,1-trifluoro-2-methylpropan-2-yl)-benzamide] in this work.
A melting point of 190.5 °C and a Kb (human EAAT3) of 650 nM were found for Cc1ccc(-c2cc(C(=O)NC(C)(C)C(F)(F)F)cc(-n3cnnn3)c2)cc1 [Example 13, 3-(4-Methylphenyl)-5-(tetrazol-1-yl)-N-(1,1,1-trifluoro-2-methylpropan-2-yl)-benzamide] in this work.
A melting point of 108 °C and a Kb (human EAAT3) of 550 nM were found for CC(C)(C)c1nnnn1-c1cc(C(=O)NC(C)(C)C(F)(F)F)cc(-c2ccc(C(F)(F)F)cc2)c1 [Example 116, 3-(5-tert-Butyltetrazol-1-yl)-5-[4-(trifluoromethyl)-phenyl]-N-(1,1,1-trifluoro-2-methylpropan-2-yl)-benzamide] in this work.
A melting point of 85 °C and a Kb (human EAAT3) of 160 nM were found for CCC(C)(C)NC(=O)c1cc(-c2ccc(Cl)cc2)cc(-n2nnnc2C(C)C)c1 [Example 42, 3-(4-Chlorophenyl)-N-(2-methylbutan-2-yl)-5-(5-propan-2-yltetrazol-1-yl)-benzamide] in this work.
A melting point of 199 °C and a Kb (human EAAT3) of 120 nM were found for CCC(C)(C)NC(=O)c1cc(-c2ccc(F)cc2)cc(-n2nnnc2C(C)(C)C)c1 [Example 97, 3-(5-tert-Butyltetrazol-1-yl)-5-(4-fluorophenyl)-N-(2-methylbutan-2-yl)-benzamide] in this work.
A melting point of 221.5 °C and a Kb (human EAAT3) of 360 nM were found for CC(C)(C)c1nnnn1-c1cc(C(=O)NC(C)(C)C(F)(F)F)cc(-c2ccc(F)c(F)c2)c1 [Example 122, 3-(5-tert-Butyltetrazol-1-yl)-5-(3,4-difluorophenyl)-N-(1,1,1-trifluoro-2-methylpropan-2-yl)-benzamide] in this work.
A melting point of 101 °C and a Kb (human EAAT3) of 300 nM were found for CC(C)(C)c1nnnn1-c1cc(C(=O)NC(C)(C)C2CC2)cc(-c2ccc(Cl)cc2)c1 [Example 92, 3-(5-tert-Butyltetrazol-1-yl)-5-(4-chlorophenyl)-N-(2-cyclopropylpropan-2-yl)-benzamide] in this work.
A melting point of 80 °C and a Kb (human EAAT3) of 310 nM were found for CC(C)c1nnnn1-c1cc(C(=O)NC(C)(C)C(F)(F)F)cc(-c2ccc(F)cc2)c1 [Example 59, 3-(4-Fluorophenyl)-5-(5-propan-2-yltetrazol-1-yl)-N-(1,1,1-trifluoro-2-methylpropan-2-yl)-benzamide] in this work.
A melting point of 191 °C and a Kb (human EAAT3) of 210 nM were found for CC(C)(NC(=O)c1cc(-c2ccc(Cl)cc2)cc(-n2cnnn2)c1)C1CC1 [Example 31, 3-(4-Chlorophenyl)-N-(2-cyclopropylpropan-2-yl)-5-(tetrazol-1-yl)-benzamide] in this work.
A melting point of 86.5 °C and a Kb (human EAAT3) of 550 nM were found for CC(C)c1nnnn1-c1cc(C(=O)NC(C)(C)CO)cc(-c2ccc(F)cc2)c1 [Example 62, 3-(4-Fluorophenyl)-N-(1-hydroxy-2-methylpropan-2-yl)-5-(5-propan-2-yltetrazol-1-yl)-benzamide] in this work.
A melting point of 203 °C and a Kb (human EAAT3) of 540 nM were found for Cc1cc(-c2cc(C(=O)NC(C)(C)C(F)(F)F)cc(-n3nnnc3C(C)(C)C)c2)ccc1F [Example 118, 3-(5-tert-Butyltetrazol-1-yl)-5-(4-fluoro-3-methylphenyl)-N-(1,1,1-trifluoro-2-methylpropan-2-yl)-benzamide] in this work.
A melting point of 185 °C and a Kb (human EAAT3) of 180 nM were found for CCC(C)(C)NC(=O)c1cc(-c2ccc(Cl)cc2)cc(-n2nnnc2C(F)(F)F)c1 [Example 74, 3-(4-Chlorophenyl)-N-(2-methylbutan-2-yl)-5-[5-(trifluoromethyl)-tetrazol-1-yl]-benzamide] in this work.
A melting point of 201 °C and a Kb (human EAAT3) of 200 nM were found for CC(C)(C)c1nnnn1-c1cc(C(=O)NC(C)(C)C2CC2)cc(-c2ccc(F)cc2)c1 [Example 99, 3-(5-tert-Butyltetrazol-1-yl)-N-(2-cyclopropylpropan-2-yl)-5-(4-fluorophenyl)-benzamide] in this work.
A melting point of 92 °C and a Kb (human EAAT3) of 270 nM were found for CC(C)c1nnnn1-c1cc(C(=O)NC(C)(C)C)cc(-c2ccc(C(F)(F)F)cc2)c1 [Example 47, N-tert-Butyl-3-(5-propan-2-yltetrazol-1-yl)-5-[4-(trifluoromethyl)-phenyl]-benzamide] in this work.
A melting point of 74.5 °C and a Kb (human EAAT3) of 450 nM were found for Cc1ccc(-c2cc(C(=O)NC(C)(C)C3CC3)cc(-n3nnnc3C3CC3)c2)cc1 [Example 35, N-(2-Cyclopropylpropan-2-yl)-3-(5-cyclopropyltetrazol-1-yl)-5-(4-methylphenyl)-benzamide] in this work.
A melting point of 85 °C and a Kb (human EAAT3) of 780 nM were found for Cc1nnnn1-c1cc(C(=O)NC(C)(C)CO)cc(-c2ccc(F)cc2)c1 [Example 84, 3-(4-Fluorophenyl)-N-(1-hydroxy-2-methylpropan-2-yl)-5-(5-methyltetrazol-1-yl)-benzamide] in this work.
A melting point of 130.5 °C and a Kb (human EAAT3) of 300 nM were found for Cc1ccc(-c2cc(C(=O)NC3(C)CCS(=O)(=O)C3)cc(-n3nnnc3C3CC3)c2)cc1 (racemic) [Example 33, (RS)-3-(5-Cyclopropyltetrazol-1-yl)-N-(3-methyl-1,1-dioxothiolan-3-yl)-5-(4-methylphenyl)-benzamide] in this work.
A melting point of 91 °C and a Kb (human EAAT3) of 480 nM were found for CC(C)c1nnnn1-c1cc(C(=O)NC(C)(C)C(F)(F)F)cc(-c2ccc(C(F)(F)F)cc2)c1 [Example 53, 3-(5-Propan-2-yltetrazol-1-yl)-5-[4-(trifluoromethyl)-phenyl]-N-(1,1,1-trifluoro-2-methylpropan-2-yl)-benzamide] in this work.
A melting point of 110 °C and a Kb (human EAAT3) of 360 nM were found for CC(C)(CO)NC(=O)c1cc(-c2ccc(Cl)cc2)cc(-n2nnnc2C2CC2)c1 [Example 58, 3-(4-Chlorophenyl)-5-(5-cyclopropyltetrazol-1-yl)-N-(1-hydroxy-2-methylpropan-2-yl)-benzamide] in this work.
A melting point of 212 °C and a Kb (human EAAT3) of 250 nM were found for CC(C)(CO)NC(=O)c1cc(-c2ccc(F)cc2)cc(-n2nnnc2C(C)(C)C)c1 [Example 94, 3-(5-tert-Butyltetrazol-1-yl)-5-(4-fluorophenyl)-N-(1-hydroxy-2-methylpropan-2-yl)-benzamide] in this work.
A melting point of 82 °C and a Kb (human EAAT3) of 270 nM were found for Cc1ccc(-c2cc(C(=O)NC(C)(C)C(F)(F)F)cc(-n3nnnc3C3CC3)c2)cc1 [Example 25, 3-(5-Cyclopropyltetrazol-1-yl)-5-(4-methylphenyl)-N-(1,1,1-trifluoro-2-methylpropan-2-yl)-benzamide] in this work.
A melting point of 90 °C and a Kb (human EAAT3) of 350 nM were found for CC(C)(C)c1nnnn1-c1cc(C(=O)NC(C)(C)C2CC2)cc(-c2ccc(F)c(F)c2)c1 [Example 113, 3-(5-tert-Butyltetrazol-1-yl)-N-(2-cyclopropylpropan-2-yl)-5-(3,4-difluorophenyl)-benzamide] in this work.
A melting point of 120 °C and a Kb (human EAAT3) of 410 nM were found for CCC(C)(C)NC(=O)c1cc(-c2ccc(F)c(C)c2)cc(-n2cnnn2)c1 [Example 6, 3-(4-Fluoro-3-methylphenyl)-N-(2-methylbutan-2-yl)-5-(tetrazol-1-yl)-benzamide] in this work.

Reference: patent US10577332B2, “Tetrazole derivatives” (Hoffmann-La Roche Inc., priority 2015, dated 2020)
